Where two headings read alike, the source gives them in different places. Blank lines part the entries; values can stand above or below the molecule they belong to.
What was measured:
[1] = biological target: T1, mUSP18 (Mus musculus, UniProt Q9WTV6); assay: High-throughput screening, ISG15ct-RhoMP, single dose 1.25 µM; type: biochemical, murine
T1 construct: (46-368); His-tag (N); made in house
T1 sequence (Q9WTV6 46-368): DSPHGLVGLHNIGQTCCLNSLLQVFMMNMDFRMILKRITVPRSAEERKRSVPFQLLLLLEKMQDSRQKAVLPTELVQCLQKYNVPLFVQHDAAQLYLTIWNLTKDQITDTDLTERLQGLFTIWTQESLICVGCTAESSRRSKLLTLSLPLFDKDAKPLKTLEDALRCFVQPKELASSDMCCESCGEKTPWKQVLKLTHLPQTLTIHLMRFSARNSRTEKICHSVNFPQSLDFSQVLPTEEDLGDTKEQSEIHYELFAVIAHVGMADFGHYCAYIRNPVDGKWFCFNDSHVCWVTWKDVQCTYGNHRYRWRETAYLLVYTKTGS

[2] = biological target: USP16 (Homo sapiens, UniProt Q9Y5T5); assay: High-throughput screening, Ub-RhoMP, single dose 1.25 µM; type: biochemical; design: (22-823); His-tag (N); made in house; settings: for %inhibition USP16: crude in-plate synthesized compound, 1.25 µM assuming full conversion; for BB %inhibition USP16: individual amine building block (plate NCN-5)
Method: (§1) Since the in‐plate synthesis was conducted in 1536‐well Echo plates, the compounds could readily be transferred from these plates into 1536‐well assay plates using acoustic liquid dispensing (Figure 2a) and subjected to HTS. We screened the whole 7536 compound library against a panel of twelve enzymes, including three DUBs from the UCH family, two DUBs from the OTU family, five DUBs from the USP family, plus ISG15 protease USP18, and SUMO protease SENP1. Each compound was tested at a single dose of 1.25 µM, assuming full conversion (10 mM in DMSO of the formed products) during the in‐plate synthesis, using the fluorogenic assay described above. […] The compounds are sorted by the amine building blocks (BB1‐16), and within each BB, sorted by carboxylic acid (CA1‐471), thereby providing a comprehensive and systematic overview of the overall inhibition by each BB and CA combination. Some interesting patterns can be obtained from this map. […] Indeed, BB10 is the privileged scaffold for UCHL1 as it originates from UCHL1 inhibitor 5 (Figure 1). […] On the other hand, OTUD1 and USP32 show a much higher hit rate, and this is even more pronounced for USP30 and ISG15 protease mUSP18, each showing many active compounds distributed over several BB's.
(§2) Purified recombinant enzymes used in this study
(§3) High-throughput screening
(§4) The screens were performed at room temperature in “flat bottom, non-treated, black […]
(§5) µM. The compounds (10 nL each) were transferred from the 1 mM daughter plates to the […]
(§6) Four wells containing DMSO
(§7) (10 nL) and four wells containing NEM (10 mM final concentration) were used in each plate […]
(§8) solution (1.33x final concentration) was added to each well, followed by incubation for 30 min.
(§9) Next, 2 µL of a substrate solution (4x final concentration) was added to each well (Ub-RhoMP[2]
(§10) After 1h or 2h incubation the
(§11) The percentage inhibition was calculated for each well using the […]
(§12) Where FIx is the fluorescence intensity of each well, FIpos is the average fluorescence intensity of the positive (NEM) control wells, and FIneg is the average fluorescence intensity of the negative (DMSO) control wells.

[3] = biological target: T2, SENP1 (Homo sapiens, UniProt Q9P0U3); assay: High-throughput screening, single dose 1.25 µM; type: biochemical; settings: for %inhibition SENP1: crude in-plate synthesized compound, 1.25 µM assuming full conversion; for inhibition at 1.25 µM: individual amine building block (plate NCN-5), read-out: BB %inhibition SENP1
T2 sequence (Q9P0U3 419-644): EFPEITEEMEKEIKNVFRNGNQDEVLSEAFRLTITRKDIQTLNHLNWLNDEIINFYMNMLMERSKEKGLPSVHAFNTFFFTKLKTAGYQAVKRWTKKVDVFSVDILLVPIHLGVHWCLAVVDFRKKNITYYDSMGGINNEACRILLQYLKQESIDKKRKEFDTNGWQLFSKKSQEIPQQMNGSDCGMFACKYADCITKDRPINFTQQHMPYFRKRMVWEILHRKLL
Method: as §1, §2, §3, §4, §5, §6, §7, §8, §9, §10, §11, §12

[4] = biological target: T3, UCHL3 (Homo sapiens, UniProt P15374); assay: High-throughput screening, Ub-RhoMP, single dose 1.25 µM; type: biochemical; settings: for %inhibition UCHL3: crude in-plate synthesized compound, 1.25 µM assuming full conversion; for inhibition at 1.25 µM: individual amine building block (plate NCN-5), read-out: BB %inhibition UCHL3
T3 construct: (1-230); made in house
T3 sequence (P15374 1-230): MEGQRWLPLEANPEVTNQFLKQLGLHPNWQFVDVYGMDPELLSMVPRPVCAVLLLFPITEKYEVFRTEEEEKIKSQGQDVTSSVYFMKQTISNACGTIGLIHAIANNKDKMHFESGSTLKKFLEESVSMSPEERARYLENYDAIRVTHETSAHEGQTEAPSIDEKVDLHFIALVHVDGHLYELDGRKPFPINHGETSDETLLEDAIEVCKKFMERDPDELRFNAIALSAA
Method: as §1, §2, §3, §4, §5, §6, §7, §8, §9, §10, §11, §12

[5] = biological target: T4, USP8 (Homo sapiens, UniProt P40818); assay: as above; type: biochemical; settings: for %inhibition USP8: crude in-plate synthesized compound, 1.25 µM assuming full conversion; for BB %inhibition USP8: individual amine building block (plate NCN-5)
T4 construct: (1-1118); purchased Ubiquigent 64-0053-050
T4 sequence (P40818 1-1118): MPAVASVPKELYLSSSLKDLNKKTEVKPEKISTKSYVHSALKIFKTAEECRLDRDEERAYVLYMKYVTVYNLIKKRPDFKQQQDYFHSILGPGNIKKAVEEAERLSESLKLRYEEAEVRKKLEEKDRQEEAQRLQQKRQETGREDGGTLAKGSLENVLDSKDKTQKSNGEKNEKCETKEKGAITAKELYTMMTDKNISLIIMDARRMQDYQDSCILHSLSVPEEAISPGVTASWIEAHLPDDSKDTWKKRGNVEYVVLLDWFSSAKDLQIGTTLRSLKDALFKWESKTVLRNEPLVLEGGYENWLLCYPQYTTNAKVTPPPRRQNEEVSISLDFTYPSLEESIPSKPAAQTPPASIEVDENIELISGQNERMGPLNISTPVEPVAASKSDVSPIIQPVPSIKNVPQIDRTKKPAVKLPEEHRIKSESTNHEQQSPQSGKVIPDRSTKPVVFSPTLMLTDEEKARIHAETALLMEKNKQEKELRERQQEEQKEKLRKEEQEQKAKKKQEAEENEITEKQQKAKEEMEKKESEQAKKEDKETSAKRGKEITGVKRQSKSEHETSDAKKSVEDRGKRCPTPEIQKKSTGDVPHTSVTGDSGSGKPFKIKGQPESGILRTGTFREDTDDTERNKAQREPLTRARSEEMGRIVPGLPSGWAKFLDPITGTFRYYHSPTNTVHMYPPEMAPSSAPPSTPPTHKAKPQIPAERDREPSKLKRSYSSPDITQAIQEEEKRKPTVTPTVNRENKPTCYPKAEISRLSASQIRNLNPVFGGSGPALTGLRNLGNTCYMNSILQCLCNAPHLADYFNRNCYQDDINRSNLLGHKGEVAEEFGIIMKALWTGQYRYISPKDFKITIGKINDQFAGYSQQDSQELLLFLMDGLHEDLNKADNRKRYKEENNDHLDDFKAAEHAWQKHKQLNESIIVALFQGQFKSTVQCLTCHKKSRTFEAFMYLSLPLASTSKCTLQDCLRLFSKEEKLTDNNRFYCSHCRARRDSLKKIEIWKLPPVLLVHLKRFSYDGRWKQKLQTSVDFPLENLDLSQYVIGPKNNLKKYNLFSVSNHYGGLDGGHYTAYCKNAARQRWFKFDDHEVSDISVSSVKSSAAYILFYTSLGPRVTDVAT
Method: as §1, §2, §3, §4, §5, §6, §7, §8, §9, §10, §11, §12

[6] = crude in-plate synthesized compound, 1.25 µM assuming full conversion, read-out: %inhibition mUSP18
[7] = individual amine building block (plate NCN-5), read-out: BB %inhibition mUSP18

Chain of USP16 (Q9Y5T5 22-823): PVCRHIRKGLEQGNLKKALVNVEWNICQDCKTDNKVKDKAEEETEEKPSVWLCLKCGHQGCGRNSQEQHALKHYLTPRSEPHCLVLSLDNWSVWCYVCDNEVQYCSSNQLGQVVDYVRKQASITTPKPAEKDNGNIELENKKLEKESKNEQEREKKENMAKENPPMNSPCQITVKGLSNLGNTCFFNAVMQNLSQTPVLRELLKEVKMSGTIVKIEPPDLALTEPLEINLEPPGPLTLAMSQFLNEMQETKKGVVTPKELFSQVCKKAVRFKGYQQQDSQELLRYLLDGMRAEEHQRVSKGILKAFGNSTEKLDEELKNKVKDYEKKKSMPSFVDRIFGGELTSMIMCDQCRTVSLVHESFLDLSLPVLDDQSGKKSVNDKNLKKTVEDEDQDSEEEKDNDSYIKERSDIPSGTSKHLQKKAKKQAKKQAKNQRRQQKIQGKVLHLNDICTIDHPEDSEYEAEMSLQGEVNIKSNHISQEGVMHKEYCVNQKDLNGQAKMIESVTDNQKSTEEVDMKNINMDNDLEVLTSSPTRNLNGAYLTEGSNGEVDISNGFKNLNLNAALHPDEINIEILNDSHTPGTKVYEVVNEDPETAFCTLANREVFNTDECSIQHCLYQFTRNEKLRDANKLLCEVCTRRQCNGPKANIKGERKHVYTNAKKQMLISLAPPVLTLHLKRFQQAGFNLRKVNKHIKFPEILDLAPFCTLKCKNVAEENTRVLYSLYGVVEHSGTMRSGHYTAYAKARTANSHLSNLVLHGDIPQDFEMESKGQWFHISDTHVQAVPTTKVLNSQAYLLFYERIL

Structure (SMILES): N#CN1CC[C@@H](NC(=O)c2nc(N3CCCC3)ncc2Cl)C1 [BB01CA90]
inhibition at 1.25 µM [1, 6]: 27.1% | %inhibition USP16 [2]: 11.4% | %inhibition SENP1 [3]: 16.6% | %inhibition UCHL3 [4]: 19.3% | %inhibition USP8 [5]: 29.2%

Structure (SMILES): N#CN1CC[C@@H](NC(=O)C(Cc2c[nH]cn2)NS(=O)(=O)c2ccc(Cl)cc2)C1 (stereo partly shown) [BB01CA91]
inhibition at 1.25 µM [1, 6]: 13.4% | %inhibition USP16 [2]: 7.7% | %inhibition SENP1 [3]: 13.2% | %inhibition UCHL3 [4]: 16.3% | %inhibition USP8 [5]: 28.4%

Structure (SMILES): N#CN1CC[C@@H](NC(=O)Cc2csc(-c3cnccn3)n2)C1 [BB01CA92]
inhibition at 1.25 µM [1, 6]: 24.6% | %inhibition USP16 [2]: 15.0% | %inhibition SENP1 [3]: 12.8% | %inhibition UCHL3 [4]: 17.1% | %inhibition USP8 [5]: 32.5%

Structure (SMILES): N#CN1CC[C@@H](NC(=O)CCN(Cc2ccccc2)S(=O)(=O)c2c(Cl)cccc2Cl)C1 [BB01CA93]
inhibition at 1.25 µM [1, 6]: 74.1% | %inhibition USP16 [2]: 20.5% | %inhibition SENP1 [3]: 8.6% | %inhibition UCHL3 [4]: 16.3% | %inhibition USP8 [5]: 33.0%

Structure (SMILES): N#CN1CC[C@@H](NC(=O)c2ncoc2-c2cccs2)C1 [BB01CA94]
inhibition at 1.25 µM [1, 6]: 24.1% | %inhibition USP16 [2]: 11.4% | %inhibition SENP1 [3]: 8.5% | %inhibition UCHL3 [4]: 16.0% | %inhibition USP8 [5]: 24.1%

The next lines start with the values.

inhibition at 1.25 µM [1, 7]: 6.8% | BB %inhibition USP16 [2]: 7.2% | inhibition at 1.25 µM [3]: 1.3% | inhibition at 1.25 µM [4]: 5.9% | BB %inhibition USP8 [5]: 9.1%
Structure (SMILES): N#CN1CC[C@@H](N)C1 [BB1]

inhibition at 1.25 µM [1, 7]: 4.3% | BB %inhibition USP16 [2]: 8.1% | inhibition at 1.25 µM [3]: -2.9% | inhibition at 1.25 µM [4]: 3.9% | BB %inhibition USP8 [5]: 1.0%
Structure (SMILES): N#CN1CCC(N)CC1 [BB2]

inhibition at 1.25 µM [1, 7]: 3.1% | BB %inhibition USP16 [2]: 5.8% | inhibition at 1.25 µM [3]: -1% | inhibition at 1.25 µM [4]: 0.6% | BB %inhibition USP8 [5]: 3.6%
Structure (SMILES): N#CN1CC[C@H](N)C1 [BB3]

inhibition at 1.25 µM [1, 7]: 3.9% | BB %inhibition USP16 [2]: 5.0% | inhibition at 1.25 µM [3]: -2.1% | inhibition at 1.25 µM [4]: 2% | BB %inhibition USP8 [5]: 5.3%
Structure (SMILES): N#CN1CCC[C@@H](N)C1 [BB4]

inhibition at 1.25 µM [1, 7]: -0.216% | BB %inhibition USP16 [2]: 1.2% | inhibition at 1.25 µM [3]: -5.2% | inhibition at 1.25 µM [4]: -0.9% | BB %inhibition USP8 [5]: 1.7%
Structure (SMILES): N#CN1CC(N)C1 [BB5]

inhibition at 1.25 µM [1, 7]: -0.535% | BB %inhibition USP16 [2]: 0.3% | inhibition at 1.25 µM [3]: -9% | inhibition at 1.25 µM [4]: -4.7% | BB %inhibition USP8 [5]: -1.3%
Structure (SMILES): N#CN1C[C@H]2C[C@@H](N)C[C@H]2C1 [BB6]

— publication PMC12668310, “High‐Throughput Synthesis and Screening of a Cyanimide Library Identifies Selective Inhibitors of ISG15‐Specific Protease mUSP18” (Angewandte Chemie (International Ed. in English), 2025)
